According to US11986532B2 (Arvinas Operations, Inc., priority 2021, dated 2024):
Like-named read-outs stand apart in the source and are kept apart here.

Biological target: T1, BCL6 (Homo sapiens, UniProt P41182)
T1 construct: endogenous in cells; host or cells: T47D breast cancer epithelial cells
Experiment: Immunofluorescence protocol for high content imaging of BCL6 (degradation) in T47D cells, 3 days compound treatment
Type: cell-based
Settings: for DC50: read-out: Mean DC50 (nM)* category; for Dmax: read-out: Mean Dmax (%)** category
Procedure, shortened: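 T47D cells in RPMI1640-10% FBS were treated with an 11-point 3-fold dilution series (final top 0.1 or 1 μM) for 3 days at 37° C. After PFA fixation and Triton permeabilization, cells were immunostained with rabbit anti-BCL6 (1:300, overnight 4° C), Alexa-488 secondary, CellMask-647 and Hoechst, then imaged at 10×, 4 fields/well.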

[1] = T47D cells, 3 days compound treatment

Row | SMILES | DC50 [1] | Dmax [1] | Dmax (T47D) | DC50
1 | CNC(=O)COc1cc2cc(Nc3nc(N4CCC(O[C@H]5C[C@H](N6C[C@H](C)N(c7ccc8c(c7)CN(C7CCC(=O)NC7=O)C8=O)[C@@H](C)C6)C5)CC4)ncc3Cl)ccc2n(C(C)C)c1=O (relative stereo) [Compound 180, 2-({6-[(5-chloro-2-{4-[(1r,3r)-3-[(3R*,5R*)-4-[2-(2,6-dioxopiperidin-3-yl)-1-oxo-2,3-dihydro-1H-isoindol-5-yl]-3,5-dimethylpiperazin-1-yl]cyclobutoxy]piperidin-1-yl}pyrimidin-4-yl)amino]-2-ox0-1-(propan-2-yl)-1,2-dihydroquinolin-3-yl}oxy)-N-methylacetamide] | < 10 nM | ≥ 70% | – | –
2 | CNC(=O)COc1cc2cc(Nc3nc(N4CCC(O[C@H]5C[C@H](N6CCC7(CCN(c8ccc9c(c8)CN(C8CCC(=O)NC8=O)C9=O)CC7)CC6)C5)CC4)ncc3Cl)ccc2n(C(C)C)c1=O (stereo partly shown) [Compound 349, 2-({6-[(5-chloro-2-{4-[(1r,3r)-3-{9-[2-(2,6-dioxopiperidin-3-yl)-1-oxo-2,3-dihydro-1H-isoindol-5-yl]-3,9-diazaspiro [5.5]undecan-3-yl}cyclobutoxy]piperidin-1-yl}pyrimidin-4-yl)amino]-2-oxo-1-(propan-2-yl)-1,2-dihydroquinolin-3-yl}oxy)-N-methylacetamide] | – | – | ≥ 70% | < 10 nM
3 | CNC(=O)COc1cc2cc(Nc3nc(N4CCC(O[C@H]5C[C@H](N6[C@H](C)CN(c7ccc8c(c7)C(=O)N(C7CCC(=O)NC7=O)C8=O)C[C@@H]6C)C5)CC4)ncc3Cl)ccc2n(C(C)C)c1=O (stereo partly drawn) [Compound 248, 2-[[6-[[5-chloro-2-[4-[3-[(2R,6S)-4-[2-(2,6-dioxo-3-piperidyl)-1,3-dioxo-isoindolin-5-yl]-2,6-dimethyl-piperazin-1-yl]cyclobutoxy]-1-piperidyl]pyrimidin-4-yl]amino]-1-isopropyl-2-oxo-3-quinolyl]oxy]-N-methyl-acetamide] | – | – | 50 to 70% | < 10 nM
4 | CNC(=O)COc1cc2cc(Nc3cc(N4CCC(O[C@H]5C[C@H](N6CCC(c7ccc8c(c7)C(=O)N(C7CCC(=O)NC7=O)C8=O)CC6)C5)CC4)ncc3Cl)ccc2n(C(C)C)c1=O (stereo partly shown) [Compound 243, 2-({6-[(5-chloro-2-{4-[(1r,3r)-3-{4-[2-(2,6-dioxopiperidin-3-yl)-1,3-dioxo-2,3-dihydro-1H-isoindol-5-yl]piperidin-1-yl}cyclobutoxy]piperidin-1-yl}pyridin-4-yl)amino]-2-oxo-1-(propan-2-yl)-1,2-dihydroquinolin-3-yl}oxy)-N-methylacetamide] | – | – | < 50% | 10 to 50 nM
5 | CC[C@@H]1CN([C@H]2C[C@H](OC3CCN(c4ncc(Cl)c(Nc5ccc6c(c5)cc(OCC(=O)NC)c(=O)n6C(C)C)n4)CC3)C2)CCN1c1ccc2c(c1Cl)CN(C1CCC(=O)NC1=O)C2=O (stereo partly drawn) [Compound 205, 2-({6-[(5-chloro-2-{4-[(1r,3r)-3-[(3R)-4-[4-chloro-2-(2,6-dioxopiperidin-3-yl)-1-oxo-2,3-dihydro-1H-isoindol-5-yl]-3-ethylpiperazin-1-yl]cyclobutoxy]piperidin-1-yl}pyrimidin-4-yl)amino]-2-oxo-1-(propan-2-yl)-1,2-dihydroquinolin-3-yl}oxy)-N-methylacetamide] | < 10 nM | ≥ 70% | – | –
6 | CNC(=O)COc1cc2cc(Nc3cc(N4CCC(CN5CCC6(CN(c7ccc8c(c7OC)CN(C7CCC(=O)NC7=O)C8=O)C6)C(F)(F)C5)CC4)ncc3Cl)ccc2n(C(C)C)c1=O (stereo not shown) [Compound 232, 2-{[6-({5-chloro-2-[4-({2-[2-(2,6-dioxopiperidin-3-yl)-4-methoxy-1-oxo-2,3-dihydro-1H-isoindol-5-yl]-5,5-difluoro-2,7-diazaspiro[3.5]nonan-7-yl}methyl)piperidin-1-yl]pyridin-4-yl}amino)-2-oxo-1-(propan-2-yl)-1,2-dihydroquinolin-3-yl]oxy}-N-methylacetamide] | – | – | – | < 10 nM
7 | CNC(=O)COc1cc2cc(Nc3nc(N4CCC(O[C@H]5C[C@H](N6CCN(c7ccc8c(c7C)C(=O)N(C7CCC(=O)NC7=O)C8=O)C[C@@H]6C)C5)CC4)ncc3Cl)ccc2n(C(C)C)c1=O (stereo partly drawn) [Compound 194, 2-({6-[(5-chloro-2-{4-[(1r,3r)-3-[(2S)-4-[2-(2,6-dioxopiperidin-3-yl)-4-methyl-1,3-dioxo-2,3-dihydro-1H-isoindol-5-yl]-2-methylpiperazin-1-yl]cyclobutoxy]piperidin-1-yl}pyrimidin-4-yl)amino]-2-oxo-1-(propan-2-yl)-1,2-dihydroquinolin-3-yl}oxy)-N-methylacetamide] | < 10 nM | ≥ 70% | – | –
8 | CNC(=O)COc1cc2cc(Nc3nc(N4CCC(O[C@H]5C[C@H](N6CCC(c7ccc8c(c7F)CN(C7CCC(=O)NC7=O)C8=O)C(F)C6)C5)CC4)ncc3Cl)ccc2n(C(C)C)c1=O (stereo partly shown) [Compound 201, 2-[[6-[[5-chloro-2-[4-[3-[4-[2-(2,6-dioxo-3-piperidyl)-4-fluoro-1-oxo-isoindolin-5-yl]-3-fluoro-1-piperidyl]cyclobutoxy]-1-piperidyl]pyrimidin-4-yl]amino]-1-isopropyl-2-oxo-3-quinolyl]oxy]-N-methyl-acetamide] | < 10 nM | ≥ 70% | – | –
9 | CNC(=O)COc1cc2cc(Nc3nc(N4CCC(CN5CC(N6CCC(c7ccc8c(c7)CN(C7CCC(=O)NC7=O)C8=O)C(F)C6)C5)CC4)ncc3Cl)ccc2n(C(C)C)c1=O (stereo not shown) [Compound 217, 2-({6-[(5-chloro-2-{4-[(3-{4-[2-(2,6-dioxopiperidin-3-yl)-1-oxo-2,3-dihydro-1H-isoindol-5-yl]-3-fluoropiperidin-1-yl}azetidin-1-yl)methyl]piperidin-1-yl}pyrimidin-4-yl)amino]-2-oxo-1-(propan-2-yl)-1,2-dihydroquinolin-3-yl}oxy)-N-methylacetamide] | – | – | 50 to 70% | < 10 nM
10 | CNC(=O)COc1cc2cc(Nc3nc(N4CCC5(CC4)CC(C(C)(C)N4CCN(c6cccc7c6CN(C6CCC(=O)NC6=O)C7=O)CC4)C5)ncc3Cl)ccc2n(C(C)C)c1=O (stereo not shown) [Compound 34, 2-{[6-({5-chloro-2-[2-(2-{4-[2-(2,6-dioxopiperidin-3-yl)-1-oxo-2,3-dihydro-1H-isoindol-4-yl]piperazin-1-yl}propan-2-yl)-7-azaspiro[3.5]nonan-7-yl]pyrimidin-4-yl}amino)-2-oxo-1-(propan-2-yl)-1,2-dihydroquinolin-3-yl]oxy}-N-methylacetamide] | < 10 nM | 50 to 70% | – | –
11 | CNC(=O)COc1cc2cc(Nc3nc(N4CCC(O[C@H]5C[C@H](N6CC7(CCN7c7ccc8c(c7)CN(C7CCC(=O)NC7=O)C8=O)C6)C5)CC4)ncc3Cl)ccc2n(C(C)C)c1=O (stereo partly shown) [Compound 309, 2-({6-[(5-chloro-2-{4-[(1r,3r)-3-{1-[2-(2,6-dioxopiperidin-3-yl)-1-oxo-2,3-dihydro-1H-isoindol-5-yl]-1,6-diazaspiro[3.3]heptan-6-yl}cyclobutoxy]piperidin-1-yl}pyrimidin-4-yl)amino]-2-oxo-1-(propan-2-yl)-1,2-dihydroquinolin-3-yl}oxy)-N-methylacetamide] | – | – | 50 to 70% | < 10 nM
12 | CNC(=O)COc1cc2cc(Nc3nc(N4CCC(CN5CCC6(CC5)CN(c5ccc7c(c5C)C(=O)N(C5CCC(=O)NC5=O)C7=O)C6)CC4)ncc3Cl)ccc2n(C(C)C)c1=O (stereo not shown) [Compound 358, 2-{[6-({5-chloro-2-[4-({2-[2-(2,6-dioxopiperidin-3-yl)-4-methyl-1,3-dioxo-2,3-dihydro-1H-isoindol-5-yl]-2,7-diazaspiro[3.5]nonan-7-yl}methyl)piperidin-1-yl]pyrimidin-4-yl}amino)-2-oxo-1-(propan-2-yl)-1,2-dihydroquinolin-3-yl]oxy}-N-methylacetamide] | – | – | 50 to 70% | < 10 nM
13 | CNC(=O)COc1cc2cc(Nc3nc(N4CCC(C(C)(C)N5CCC6(CC5)CN(c5ccc7c(c5)C(=O)N(C5CCC(=O)NC5=O)C7=O)C6)CC4)ncc3Cl)ccc2n(C(C)C)c1=O (stereo not shown) [Compound 45] | < 10 nM | 50 to 70% | – | –
14 | CNC(=O)COc1cc2cc(Nc3nc(N4CCC(CN5CCC6(CC5)CN(c5ccc7c(c5)C(=O)N(C5CCC(=O)NC5=O)C7=O)C6)CC4)ncc3Cl)ccc2n(CCOC)c1=O (stereo not shown) [Compound 37, 2-{[6-({5-chloro-2-[4-({2-[2-(2,6-dioxopiperidin-3-yl)-1,3-dioxo-2,3-dihydro-1H-isoindol-5-yl]-2,7-diazaspiro[3.5]nonan-7-yl}methyl)piperidin-1-yl]pyrimidin-4-yl}amino)-1-(2-methoxyethyl)-2-oxo-1,2-dihydroquinolin-3-yl]oxy}-N-methylacetamide] | < 10 nM | 50 to 70% | – | –
15 | CNC(=O)COc1cc2cc(Nc3nc(N4CCC(C(=O)N5CCC6(CCN(c7ccc8c(c7)CN(C7CCC(=O)NC7=O)C8=O)C6)C5)CC4)ncc3Cl)ccc2n(C(C)C)c1=O (stereo not shown) [Compound 47, 2-[(6-{[5-chloro-2-(4-{7-[2-(2,6-dioxopiperidin-3-yl)-1-oxo-2,3-dihydro-1H-isoindol-5-yl]-2,7-diazaspiro[4.4]nonane-2-carbonyl}piperidin-1-yl)pyrimidin-4-yl]amino}-2-oxo-1-(propan-2-yl)-1,2-dihydroquinolin-3-yl)oxy]-N-methylacetamide] | < 10 nM | 50 to 70% | – | –
16 | CNC(=O)COc1cc2cc(Nc3nc(N4CCC(O[C@H]5C[C@H](N6CCN(c7ccc8c(c7Cl)C(=O)N(C7CCC(=O)NC7=O)C8=O)CC6)C5)CC4)ncc3Cl)ccc2n(C(C)C)c1=O (stereo partly shown) [Compound 412, 2-({6-[(5-chloro-2-{4-[(1r,3r)-3-{4-[4-chloro-2-(2,6-dioxopiperidin-3-yl)-1,3-dioxo-2,3-dihydro-1H-isoindol-5-yl]piperazin-1-yl}cyclobutoxy]piperidin-1-yl}pyrimidin-4-yl)amino]-2-oxo-1-(propan-2-yl)-1,2-dihydroquinolin-3-yl}oxy)-N-methylacetamide] | – | – | 50 to 70% | 10 to 50 nM
